Data: ChEMBL document CHEMBL4431320 (J Med Chem, 2016)
pIC50: −log10 of the molar value. Active and inactive are the calls of the source. No cut-off for these calls is given here.

What was measured:
[1] = target: Cholinesterase (Equus caballus) (UniProt P81908); assay: Inhibition of equine BuChE at 10 uM using ACTI as substrate preincubated for 29 mins followed by substrate addition measured at 1 min intervals for 10 mins by Ellman's assay
Cholinesterase [2] = target: Cholinesterase (Equus caballus, UniProt P81908)
Description: Inhibition of equine BuChE using ACTI as substrate preincubated for 29 mins followed by substrate addition measured at 1 min intervals for 10 mins by Ellman's assay

[3] = target: Acetylcholinesterase (Electrophorus electricus) (UniProt O42275); assay: Inhibition of electric eel AChE at 10 uM using ACTI as substrate preincubated for 29 mins followed by substrate addition measured at 1 min intervals for 10 mins by Ellman's assay
[4] = Stability of compound in crystallization buffer at pH 7.4 at 0.1 mg/mL incubated for 24 hrs by RP-HPLC analysis in presence of equine BuChE; assay type: physicochemical; conditions: pH 7.4, 24 h
Cholinesterase [5] = target: Cholinesterase (Homo sapiens, UniProt P06276)
Description: Inhibition of human BuChE using ACTI as substrate incubated for 40 mins measured at 1 min intervals for 10 mins by Ellman's assay

SH-SY5Y = assay: Cytotoxicity against human SH-SY5Y cells at 0.5 to 10 uM after 48 hrs by MTT assay; assay type: cell-based
[6] = Selectivity ratio of IC50 for equine BuChE to IC50 for human BuChE
[7] = target: Acetylcholinesterase (Homo sapiens) (UniProt P22303); assay: Inhibition of human AChE at 10 uM using ACTI as substrate incubated for 40 mins measured at 1 min intervals for 10 mins by Ellman's assay
[8] = Permeability of compound at 10 uM after 4 hrs by PAMPA; assay type: ADME; conditions: read-out: permeability
[9] = Stability of compound in crystallization buffer at pH 7.4 at 0.1 mg/mL incubated for 24 hrs by RP-HPLC analysis; assay type: physicochemical; conditions: pH 7.4, 24 h

Acetylcholinesterase (Electrophorus electricus), sequence (O42275 24-633 limits assumed): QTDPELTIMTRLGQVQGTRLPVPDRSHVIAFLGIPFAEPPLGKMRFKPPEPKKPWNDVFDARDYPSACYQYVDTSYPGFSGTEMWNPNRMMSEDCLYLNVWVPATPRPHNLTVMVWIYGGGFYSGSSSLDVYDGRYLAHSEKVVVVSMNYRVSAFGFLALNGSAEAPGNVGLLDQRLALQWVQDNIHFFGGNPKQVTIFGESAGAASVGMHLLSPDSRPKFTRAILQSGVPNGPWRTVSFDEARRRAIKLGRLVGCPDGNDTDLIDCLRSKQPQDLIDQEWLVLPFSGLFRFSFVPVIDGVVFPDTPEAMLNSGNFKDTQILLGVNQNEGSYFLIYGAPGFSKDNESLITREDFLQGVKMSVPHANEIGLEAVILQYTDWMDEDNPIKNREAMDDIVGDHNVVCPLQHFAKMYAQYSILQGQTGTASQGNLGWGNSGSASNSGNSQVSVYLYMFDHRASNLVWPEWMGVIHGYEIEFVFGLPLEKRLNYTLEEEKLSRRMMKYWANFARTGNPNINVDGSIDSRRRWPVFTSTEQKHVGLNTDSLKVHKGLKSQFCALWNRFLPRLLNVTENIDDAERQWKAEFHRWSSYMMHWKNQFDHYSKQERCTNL
Cholinesterase (Equus caballus, UniProt P81908), sequence (P81908 whole entry): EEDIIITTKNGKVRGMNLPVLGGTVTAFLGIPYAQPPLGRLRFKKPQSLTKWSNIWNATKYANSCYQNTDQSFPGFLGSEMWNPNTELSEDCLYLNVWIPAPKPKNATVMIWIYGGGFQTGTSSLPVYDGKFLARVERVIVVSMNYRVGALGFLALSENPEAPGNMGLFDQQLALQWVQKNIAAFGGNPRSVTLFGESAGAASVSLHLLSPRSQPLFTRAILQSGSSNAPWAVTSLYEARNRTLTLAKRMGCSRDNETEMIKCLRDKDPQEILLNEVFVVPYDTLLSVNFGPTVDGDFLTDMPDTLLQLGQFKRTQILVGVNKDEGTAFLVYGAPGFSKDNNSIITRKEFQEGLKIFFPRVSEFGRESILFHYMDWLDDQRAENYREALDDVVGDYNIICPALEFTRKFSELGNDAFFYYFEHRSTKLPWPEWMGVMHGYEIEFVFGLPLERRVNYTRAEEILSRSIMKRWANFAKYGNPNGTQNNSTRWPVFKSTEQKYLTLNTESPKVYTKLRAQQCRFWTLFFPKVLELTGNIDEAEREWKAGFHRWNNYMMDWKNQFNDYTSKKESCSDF
Cholinesterase (Equus caballus), sequence (P81908 whole entry): as above
Acetylcholinesterase (Homo sapiens), sequence (P22303 whole entry): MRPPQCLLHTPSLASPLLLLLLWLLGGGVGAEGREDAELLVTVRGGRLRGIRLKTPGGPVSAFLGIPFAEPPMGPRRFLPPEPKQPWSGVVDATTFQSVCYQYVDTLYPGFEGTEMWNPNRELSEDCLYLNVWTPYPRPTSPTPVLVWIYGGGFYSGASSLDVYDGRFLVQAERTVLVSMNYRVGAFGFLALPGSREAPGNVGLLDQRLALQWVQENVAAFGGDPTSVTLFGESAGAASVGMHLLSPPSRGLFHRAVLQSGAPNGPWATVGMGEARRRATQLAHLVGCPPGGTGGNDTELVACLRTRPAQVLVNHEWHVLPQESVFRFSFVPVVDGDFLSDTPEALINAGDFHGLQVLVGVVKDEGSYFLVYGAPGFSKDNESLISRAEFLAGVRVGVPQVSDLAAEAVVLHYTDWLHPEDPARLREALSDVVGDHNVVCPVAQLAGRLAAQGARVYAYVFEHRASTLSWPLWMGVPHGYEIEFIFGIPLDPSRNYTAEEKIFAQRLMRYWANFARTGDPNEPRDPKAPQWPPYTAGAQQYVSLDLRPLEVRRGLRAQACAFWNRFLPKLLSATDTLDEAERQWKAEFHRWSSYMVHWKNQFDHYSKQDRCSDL
Cholinesterase (Homo sapiens, UniProt P06276), sequence (P06276 whole entry): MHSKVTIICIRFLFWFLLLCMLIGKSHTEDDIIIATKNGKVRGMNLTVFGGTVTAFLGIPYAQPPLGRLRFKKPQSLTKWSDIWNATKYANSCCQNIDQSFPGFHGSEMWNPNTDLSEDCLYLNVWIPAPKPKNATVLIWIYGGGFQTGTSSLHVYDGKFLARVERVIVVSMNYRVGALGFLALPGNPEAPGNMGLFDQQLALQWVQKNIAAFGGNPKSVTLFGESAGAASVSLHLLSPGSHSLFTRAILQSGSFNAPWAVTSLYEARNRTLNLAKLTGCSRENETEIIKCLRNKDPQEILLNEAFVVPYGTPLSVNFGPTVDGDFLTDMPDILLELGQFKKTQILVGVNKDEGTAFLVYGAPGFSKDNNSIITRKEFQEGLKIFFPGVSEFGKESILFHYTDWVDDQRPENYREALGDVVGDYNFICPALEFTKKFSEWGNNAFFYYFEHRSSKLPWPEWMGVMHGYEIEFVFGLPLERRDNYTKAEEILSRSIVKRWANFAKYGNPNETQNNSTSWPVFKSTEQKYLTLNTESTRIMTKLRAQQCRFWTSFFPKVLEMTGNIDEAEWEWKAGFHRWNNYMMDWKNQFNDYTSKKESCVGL

Row | SMILES | inhibition [1] | inhibition [3] | other results
1 | Cc1cc2nc([C@@H]3CCCN3C(=O)[C@H]3C[C@@H](O)CN3Cc3ccccc3)[nH]c2cc1C | 17.5% | inactive | pIC50 (Cholinesterase [2]): 4.33
2 | COc1ccccc1NC(=O)Cn1c(CCC(=O)O)ccc1-c1ccccc1 | 5.54% | 2.2% | 
3 | Cc1cc(C)n(C[C@H](O)CN(Cc2nc3ccccc3[nH]2)Cc2ccco2)n1 | 6.33% | 2.32% | 
4 | O[C@H](CN1CCN(c2ccccc2)CC1)c1c[nH]c2ccc(F)cc12 | 1.31% | 2.69% | 
5 | Cc1cccc(C2(O)CCN(Cc3c(-c4cccs4)[nH]c4ncccc34)CC2)c1 | 16.2% | 2.14% | pIC50 (Cholinesterase [2]): 4.31
6 | CCn1c2ccccc2c2cc(C3C(C(=O)OC)=C(C)NC4=C3C(=O)CCC4)ccc21 (stereo unspecified) | 49.5% |  | 
7 | CN(CC(=O)Nc1ccccc1F)S(=O)(=O)c1ccc2ccccc2c1 | 5.64% | 3.43% | 
8 | O=C(O)[C@H](Cc1c[nH]c2ccccc12)Nc1ncnc2c1oc1ccccc12 | 7.18% | 1.45% | 
9 | CCn1c2ccccc2c2cc(C3C(C(=O)OC4CCCC4)=C(C)NC4=C3C(=O)CC(C)(C)C4)ccc21 (stereo unspecified) | 2.53% |  | 
10 | Cc1ccccc1-n1nc(C)c(CN(CCN(C)C)Cc2ccccn2)c1C | 31.9% | 2.46% | pIC50 (Cholinesterase [2]): 4.72
11 | CCn1c2ccccc2c2cc([C@@H]3C(C(=O)OCCOC)=C(C)NC4=C3C(=O)CCC4)ccc21 | 52.7% | 1.35% | pIC50 (Cholinesterase [2]): 5.01
12 | CCOCCOC(=O)C1=C(C)NC2=C(C(=O)CC(C)(C)C2)C1c1ccc2c(c1)c1ccccc1n2CC (stereo unspecified) | 2.49% |  | 
13 | O=C(CS[C@@H]1CC(=O)N(c2ccccc2)C1=O)Nc1ccccc1F | 6.01% | 0.484% | 
14 | CCCCOC(=O)C1=C(C)NC2=C(C(=O)CCC2)C1c1ccc2c(c1)c1ccccc1n2CC (stereo unspecified) | 53.7% |  | 
15 | CCOC(=O)N1CCN([C@H]2CC(=O)N(c3cccc4ccccc34)C2=O)CC1 | 1.85% | 4.93% | 
16 | CCCCSc1nc2c(c(=O)[nH]c(=O)n2C)n1C[C@@H](O)COc1cccc2ccccc12 | 3.69% | 5.34% | 
17 | CCn1c2ccccc2c2cc(C3C(C(=O)OCC4CCCO4)=C(C)NC4=C3C(=O)CCC4)ccc21 (stereo unspecified) | 84.2% | 1.73% | Stability [4]: Stable; pIC50 (Cholinesterase [5]): 6.35; Activity (SH-SY5Y): Non-Toxic; Ratio IC50 [6]: 2; inhibition [7]: inactive; pIC50 (Cholinesterase [2]): 6.12; Papp at 4 h, 10 µM [8]: 2.46 ×10⁻⁶ cm/s; Stability [9]: Stable
18 | O=C(Cn1cc(C(=O)C2CC2)c2ccccc21)NCCc1c[nH]c2ccccc12 | 7.28% | 3.44% | 
19 | CCSCCOC(=O)C1=C(C)NC2=C(C(=O)CCC2)C1c1ccc2c(c1)c1ccccc1n2CC (stereo unspecified) | 51.2% |  | 
20 | CCC(C)OC(=O)C1=C(C)NC2=C(C(=O)CC(C)(C)C2)C1c1ccc2c(c1)c1ccccc1n2CC (stereo unspecified) | inactive |  | 
